According to PMC12186298, “Phase 1 clinical trial of eneboparatide, a novel PTH receptor 1 agonist” (Endocrine Connections, 2025):
Like-named read-outs stand apart in the source and are kept apart here. Peptide text beside a SMILES is read from it.

Experiments:
[1] = system: healthy subjects; experiment: Pharmacodynamics (serum calcium, phosphorus, endogenous PTH, urine), Part A SAD; format: in vivo, human
Experimental: (§1) Seven sequential cohorts were included in Part A. The first cohort was single-blind and included four subjects, of which three subjects were randomized to receive 5 μg eneboparatide and one subject was randomized to receive placebo. […] Subjects in Part A were admitted to the phase 1 study centre on day 1 and received the study drug at the clinical site on day 1 as a single, subcutaneous abdominal injection in the morning. They were discharged on day 4 and were asked to return for a follow-up (FU) visit on day 5–8.
(§2) Blood samples were taken on day 1 at pre-dose, at several time points post-dose up to day 4 and at FU (Part A), on day 1–14 (pre-dose), and day 15–17 and at FU (Part B) for the analysis of total sCa, albumin-adjusted serum calcium (ADsCa), and sPh. These parameters were also measured on day 1, 7 and 14 at several time points post-dose. Samples for serum creatinine were taken at predefined time points to allow for calculation of fractional excretion of calcium (FECa). Endogenous serum PTH(1–84) was measured on day 1 (pre-dose and 12 h post-dose), day 2–4 and at FU (Part A), on pre-dose on day 1, 7, and 14 and on day 15–17 and FU (Part B). In Part B, additional blood samples were taken on day 1, day 14 and at FU for the analysis of serum bone turnover biomarkers, including carboxy-terminal telopeptide of type I collagen (s-CTx), and procollagen type 1 amino-terminal propeptide (P1NP).
(§3) Urine collection was performed over 24 h for the analysis of calcium and creatinine on day 1–3 and at FU (Part A) and day 1, day 7, day 14 and at FU (Part B). FECa (%) was calculated by the formula: FECa = (urine calcium/serum calcium)/(urine creatinine/serum creatinine).

[2] = system: healthy subjects; experiment: Pharmacodynamics (serum calcium, phosphorus, endogenous PTH, urine, bone markers), Part B MAD; format: in vivo, human
Experimental: as §2, §3

[3] = system: patients with cHP; design: method as in PMID 38449442; settings: 3 months; cited from earlier work
[4] = Plasma pharmacokinetics, multiple ascending dose (Part B); format: in vivo, human; settings: for AUC(0–∞) / Cmax / Tmax / AUC(0-inf): Part B MAD; for Cmax: LC-MS/MS, mean ± SD
Experimental: Plasma samples were collected pre-dose and at scheduled time points up to 6 h post-dose on day 1 (Parts A and B) and day 14 (Part B). The analysis of eneboparatide in plasma samples was performed at QPS (The Netherlands) using a hybrid immunoaffinity liquid chromatography–mass spectrometry/mass spectrometry (LC-MS/MS) method, with a validated lower limit of quantification (LLOQ) of 50 pg/mL.

[5] = system: healthy subjects; experiment: Safety and tolerability, adverse events, Part A SAD; format: in vivo, human
Experimental: as §1

CC[C@H](C)[C@H](NC(=O)[C@H](CCC(=O)O)NC(=O)[C@H](C)NC(=O)[C@@H](NC(=O)[C@H](Cc1c[nH]cn1)NC(=O)[C@@H](NC(=O)[C@H](CCC(=O)O)NC(=O)[C@H](C)NC(=O)[C@@H](NC(=O)[C@H](CC(C)C)NC(=O)[C@H](CCCCN)NC(=O)[C@H](Cc1c[nH]cn1)NC(=O)[C@H](CC(C)C)NC(=O)[C@H](Cc1ccccc1)NC(=O)[C@H](C)NC(=O)[C@H](CCCNC(=N)N)NC(=O)[C@H](CCCNC(=N)N)NC(=O)[C@H](CCCNC(=N)N)NC(=O)[C@H](C)NC(=O)[C@H](CC(=O)O)NC(=O)[C@H](CCC(N)=O)NC(=O)[C@@H](NC(=O)[C@H](Cc1c[nH]c2ccccc12)NC(=O)[C@H](CCCCN)NC(=O)[C@H](C)NC(=O)[C@H](CCCNC(=N)N)NC(=O)[C@H](CCC(N)=O)NC(=O)[C@H](Cc1c[nH]cn1)NC(=O)[C@H](CCSC)NC(=O)[C@H](CC(C)C)NC(=O)[C@H](CCC(N)=O)NC(=O)[C@@H](NC(=O)[C@H](CCC(=O)O)NC(=O)[C@H](C)NC(=O)[C@@H](NC(=O)[C@H](C)N)C(C)C)[C@@H](C)CC)[C@@H](C)CC)[C@@H](C)CC)[C@@H](C)CC)[C@@H](C)O)C(=O)O [eneboparatide] (H-AVAEIQLMHQRAKWIQDARRRAFLHKLIAEIHTAEI-OH; N-terminus and C-terminus assumed)
urinary excretion of calcium or phosphorus ([1]; increasing single doses): no apparent dose-related changes
duration of elevation of ADsCa post-dose vs placebo ([1]; single sc 20 μg, moderate but persistent elevation): up to 18 h
effect on physiological decline in ADsCa ([1]; single sc 5 and 10 μg): blunted this physiological decline in ADsCa during the first 6 h post-dosing
persistence of dose-dependent decrease of endogenous sPTH(1–84) ([1]; single sc 20–120 μg): 24 to 72 h
endogenous sPTH compared to placebo [2]: rapidly and dose-dependently declined
time for ADsCa to return to near baseline after cessation of treatment ([2]; 80 μg dose): ~3 days
subjects with transient hypercalcaemia in whom urinary excretion of calcium remained normal ([2]; 80 μg/d): five of the six
mean 24 h-uCa ([2]; 14 days of treatment): not associated with an increase
time mean sPh remained lower compared to placebo ([2]; after 14 days of treatment, high-dose groups (above 40 μg/day)): 12 to 20 h
FECa ([2]; all doses): below 1.5%
repeated sCa measurements throughout 24 h post-dosing ([2]; days 7 and 14, all doses): stable values with little variation
time for ADsCa to return to near baseline after cessation of treatment ([2]; doses up to 60 μg): approximately 2 days
time to stable ADsCa levels after the first administration ([2]; doses up to 60 μg): approximately 2 days
serum levels of P1NP and CTX ([2]; increasing doses for 14 consecutive days): did not alter
tolerability and independence from conventional therapy [3]: well-tolerated and allowed independence from conventional therapy
AUC(0–∞) ([4]; 10 μg/day sc, Day 1, n = 4, mean ± SD): 3.26 ± 3.20 ng·h/mL
Cmax ([4]; 10 μg/day sc, Day 1, n = 4, plasma): 20.6 ± 3.43 ng/mL
Cmax ([4]; 10 μg/day sc, Day 14, n = 4, plasma): 18.4 ± 5.37 ng/mL
AUC(0–∞) ([4]; 20 μg/day sc, Day 1, n = 8, mean ± SD): 7.69 ± 5.52 ng·h/mL
Cmax ([4]; 20 μg/day sc, Day 1, n = 8, plasma): 19.6 ± 5.68 ng/mL
AUC(0–∞) ([4]; 40 μg/day sc, Day 1, n = 8, mean ± SD): 15.8 ± 11.5 ng·h/mL
Cmax ([4]; 40 μg/day sc, Day 1, n = 8, plasma): 23.8 ± 8.97 ng/mL
Tmax ([4]; 40 μg/day sc, Day 14, n = 8, median): 10.2 min
AUC(0–∞) ([4]; 60 μg/day sc, Day 1, n = 8, mean ± SD): 43.3 ± 18.1 ng·h/mL
Cmax ([4]; 60 μg/day sc, Day 1, n = 8, plasma): 42.9 ± 30.3 ng/mL
Tmax ([4]; 60 μg/day sc, Day 14, n = 7, median): 19.8 min
AUC(0–∞) ([4]; 80 μg/day sc, Day 1, n = 8, mean ± SD): 64.2 ± 56.1 ng·h/mL
Cmax ([4]; 80 μg/day sc, Day 1, n = 8, plasma): 124 ± 105 ng/mL
accumulation in plasma ([4]; after 14 consecutive daily administrations, day 14 vs day 1): absence of accumulation
Tmax ([4]; human, plasma, sc, 10 μg/day, 10 μg/day sc, Day 1, n = 4, median, read-out: Tmax): 19.8 min
Tmax ([4]; human, plasma, sc, 10 μg/day, 10 μg/day sc, Day 14, n = 4, median, read-out: Tmax): 5.4 min
Tmax ([4]; human, plasma, sc, 20 μg/day, 20 μg/day sc, Day 1, n = 8, median, read-out: Tmax): 7.8 min
Tmax ([4]; human, plasma, sc, 20 μg/day, 20 μg/day sc, Day 14, n = 7, median, read-out: Tmax): 10.2 min
Tmax ([4]; human, plasma, sc, 40 μg/day, 40 μg/day sc, Day 1, n = 8, median, read-out: Tmax): 10.2 min
Tmax ([4]; human, plasma, sc, 60 μg/day, 60 μg/day sc, Day 1, n = 8, median, read-out: Tmax): 19.8 min
Tmax ([4]; human, plasma, sc, 80 μg/day, 80 μg/day sc, Day 1, n = 8, median, read-out: Tmax): 10.2 min
Tmax ([4]; human, plasma, sc, 80 μg/day, 80 μg/day sc, Day 14, n = 8, median, read-out: Tmax): 10.8 min
AUC(0-inf) ([4]; human, plasma, 10 μg/day sc, Day 14, n = 4, mean ± SD): 2.02 ± 2.41 ng·h/mL
AUC(0-inf) ([4]; human, plasma, 20 μg/day sc, Day 14, n = 7, mean ± SD): 4.63 ± 3.29 ng·h/mL
AUC(0-inf) ([4]; human, plasma, 40 μg/day sc, Day 14, n = 8, mean ± SD): 12.5 ± 4.75 ng·h/mL
AUC(0-inf) ([4]; human, plasma, 60 μg/day sc, Day 14, n = 7, mean ± SD): 58.8 ± 30.3 ng·h/mL
AUC(0-inf) ([4]; human, plasma, 80 μg/day sc, Day 14, n = 8, mean ± SD): 51.9 ± 51.6 ng·h/mL
Cmax ([4]; human, 20 μg/day sc, Day 14, n = 7, plasma, read-out: Cmax): 18.3 ± 6.78 ng/mL
Cmax ([4]; human, 40 μg/day sc, Day 14, n = 8, plasma, read-out: Cmax): 23.6 ± 5.5 ng/mL
Cmax ([4]; human, 60 μg/day sc, Day 14, n = 7, plasma, read-out: Cmax): 44.9 ± 17.9 ng/mL
Cmax ([4]; human, 80 μg/day sc, Day 14, n = 8, plasma, read-out: Cmax): 63.5 ± 28.3 ng/mL
vomiting, subjects [5]: none
Catheter site haematoma, subjects with TEAE ([5]; single sc 5 μg, n = 3): 0
Decreased appetite, subjects with TEAE ([5]; single sc 5 μg, n = 3): 0
Fatigue, subjects with TEAE ([5]; single sc 5 μg, n = 3): 0
Headache, subjects with TEAE ([5]; single sc 5 μg, n = 3): 1
Injection site erythema, subjects with TEAE ([5]; single sc 5 μg, n = 3): 0
Injection site pain, subjects with TEAE ([5]; single sc 5 μg, n = 3): 0
Nausea, subjects with TEAE ([5]; single sc 5 μg, n = 3): 0
Somnolence, subjects with TEAE ([5]; single sc 5 μg, n = 3): 0
Catheter site haematoma, subjects with TEAE ([5]; single sc 10 μg, n = 6): 1
